From article PMC6987128, “Target protein-oriented isolation of Hes1 dimer inhibitors using protein based methods” (Scientific Reports, 2020)

Target: T1, Hes1 dimer formation (Hes1-Hes1 interaction) (Rattus norvegicus, UniProt Q04666)
T1 construct: Glutathione-S-transferase (GST) fused rat Hes1(3–281) protein was expressed in Escherichia coli; GST (N, cleaved yes); GST (N); made in house; host or cells: Escherichia coli JM109 (pGEX-ratHes1 3-281)
T1 sequence (Q04666 3-281): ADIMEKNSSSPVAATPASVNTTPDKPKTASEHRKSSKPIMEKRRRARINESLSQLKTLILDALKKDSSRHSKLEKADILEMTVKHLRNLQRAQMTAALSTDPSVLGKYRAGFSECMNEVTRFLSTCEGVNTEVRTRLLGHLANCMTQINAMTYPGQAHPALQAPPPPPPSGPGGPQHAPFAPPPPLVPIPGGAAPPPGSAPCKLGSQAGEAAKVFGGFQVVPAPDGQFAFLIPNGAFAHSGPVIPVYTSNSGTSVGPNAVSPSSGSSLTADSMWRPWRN
Test: Hes1-Hes1 interaction fluorescent plate assay (Hes1 dimer formation inhibition)
Format: binding
Source text: It is essential to inhibit undesired PPIs in drug development, and bioactivity-guided isolation using the inhibitory activity of PPIs is an attractive method to obtain effective inhibitors. However, currently there are only a few examples of such approaches using PPI assay systems[22],[23]. We previously developed a Hes1-Hes1 interaction fluorescent plate assay and reported the screening results of our natural products compound library (Fig. 2A)[24]. Glutathione-S-transferase (GST) fused rat Hes1(3–281) protein was expressed in Escherichia coli and purified rat Hes1 protein was immobilized on the bottom of 96 well plates. We prevented GST-GST interactions, which would result in false positives, by preparing GST-free Hes1 protein by GST cleavage with Turbo3C protease. After labeling Hes1 with Cy3, this florescent Hes1 protein was added to the wells of the above plate and incubated for 24 h at 4 °C. Hes1-Hes1 interaction was successfully detected as Cy3 fluorescence intensity. Using this assay system, we screened our 118 plant extract library and identified the MeOH extract of Psidium guajava leaves to contain naturally occurring compounds that inhibit Hes1 dimer formation. The MeOH extract (29.9 g) was fractionated using Diaion HP-20 with a MeOH-acetone solvent system to afford fractions 1A to 1C. Active fraction 1A (27.2 g) was suspended in 10% aq. MeOH and partitioned with hexane, EtOAc and BuOH to obtain hexane (1.1 g), EtOAc (5.7 g), BuOH (4.7 g) and aqueous (18.9 g) soluble fractions. Part of the active BuOH soluble fraction was subjected to ODS column chromatography and reverse-phase HPLC. Activity-guided separation yielded ten compounds (1–10; Fig. 3). The isolated compounds were identified as morin (1)[25], isoquercitrin (2)[26], methyl gallate (3)[27], (+)-catechin (4)[28],[29], dihydrophaseic acid (5)[30], quercetin (6)[26],[31], avicularin (7)[32],[33], gallic acid (8)[34], protocatechuic acid (9)[35] and 4-hydroxybenzoic acid (10)[36] based on comparisons of their spectral data with spectra in the literature.
Hes1-bound microplate wells[24] (Nunc Immobilizer^TM Amino Plate, Thermo) were incubated with 50 μL of Cy3-labeled-Hes1 in NET-N buffer (NET buffer (20 mM Tris-HCl, pH 7.5, 200 mM NaCl, 1 mM EDTA) containing 0.05% Nonidet® P-40, ca. 7 mg/L, dye/protein = 0.4) for 24 h at 4 °C. After removing the protein solution, the wells were washed twice with 200 μL of PBST, then each compound solution (in NET-N buffer, 50 μL) was added and the plates were incubated for 1 h at RT in the dark. The wells were washed twice with 200 μL of PBST, then dried under reduced pressure for 1 h in the dark. The Cy3 dye was excited at 544 nm and emission was monitored at 590 nm using a microplate reader (Fluoroskan Ascent, Thermo Labsystems, Vantaa, Finland). The assays were typically carried out in three individual wells, and the mean value and SD were calculated. The equilibrium between dimer formation between Cy3-Hes1/Cy3-Hes1 (in solution) and Cy3-Hes1/immobilized-Hes1 allowed the detection of Cy3-Hes1/immobilized-Hes1.
Typical procedure; Nunc Immobilizer^TM Amino 96 well Plate, white (Nalge Nunc Int., NY, USA) was used for immobilizing of Hes1. The micro plate wells were incubated with 100 µl of Hes1 (10 µg/mL in PBS) 2 h at 4 °C. After removing protein solution, the wells were incubated for 2 h at 4 °C with 100 µL of 10 mM ethanolamine (in 100 mM Na2CO3 buffer, pH 9.6) to block remaining activated units on the well. Then, wells were washed twice with 200 µL of PBST (PBS containing 0.05% Tween 20).
The Cy3 dye reagent was prepared as 1 vial of Cy3 monofunctional dye reagent (succinimidylester type; GE Healthcare, Buckinghamshire, UK) in DMSO (50 µL) and stored at -20 °C. Cy3-labeled Hes1 was prepared by mixing of protein in PBS with Cy3 dye reagent in DMSO (typically 0.6 µL of DMSO solution to 1 mL of 10 mg/L protein solution in PBS) for 30 min at 4 °C in the dark. […]

## CC1OC(Oc2cc3c(=O)oc4c(O)c(O)cc5c(=O)oc(c2O)c3c45)C(O)C(O)C1OC(=O)c1cc(O)c(O)c(O)c1 [Compound 11, 4-O-(4″-O-galloyl-α-L-rhamnopyranosyl)ellagic acid]
24 h, 2.5 μM compound, 0 μM = 100, read-out: Hes1 dimer formation rate (%)
  remaining activity at 2.5 µM: 50.4%
24 h, 5 μM compound, 0 μM = 100, read-out: Hes1 dimer formation rate (%)
  remaining activity at 5 µM: 27.6%
24 h, 10 μM compound, 0 μM = 100, read-out: Hes1 dimer formation rate (%)
  remaining activity at 10 µM: 18.1%
24 h, 25 μM compound, 0 μM = 100, read-out: Hes1 dimer formation rate (%)
  remaining activity at 25 µM: 4.1%
Cy3-labeled Hes1 / immobilized Hes1, compound 1 h at RT, read-out: Hes1 dimer formation inhibitory activity IC50
  IC50: 2530 nM
